The subject of assay [1] is Mfrn1-deficient MEL cells. In words: Hemoglobinization of Mfrn1-deficient MEL cells. The format is cell-based, mouse. The settings on record: 1 μM. On the procedure:
Differentiation of MEL Cells with DMSO (FIG. 3D) To perform differentiation experiments with MEL cells (39), the indicated MEL cells were diluted to 1×10^5 cells/mL in MEL Complete media containing 10 μM iron (III) citrate and 2% DMSO in the absence or presence of 1 μM hinokitiol or C2deOHino (added from 1000X stock in DMSO) in 12-well plates. Cells were then incubated at 37° C. for 72 hours unless otherwise noted.
Hemoglobinized MEL cells were quantified three days after DMSO induction through o-dianisidine staining similar to previously reported (74). Cells were centrifuged three days after induction and rinsed with PBS. […] The number of stained cells were then quantified via ImageJ analysis and compared to the number of total cells in each image. […]
MEL cells were induced for differentiation as described above and incubated at 37° C. for 70 hours before addition of a saturated iron-transferrin (^55Fe2Tf) solution (40 nM final concentration from a 10 μM ^55Fe2Tf stock). […] After completion, the cells were counted with a hemocytometer, the media was removed after centrifugation, the cells were rinsed with PBS (×3), and the cell suspension was diluted in scintillation cocktail and radioactivity was determined. […] After completion, the cells were counted with a hemocytometer, the media was removed after centrifugation, and the cells were rinsed with PBS (×3). […]

Assay [2] in a line: Determination of small molecule iron binding (UV-Vis). Particulars: pH 7.0. On the procedure:
Small molecule iron (III) binding was determined by UV-Vis spectroscopy of small molecules (30 μM) before and after addition of FeCl3 (10 μM) or iron (III) citrate (10 μM, Sigma F3388) in 10 mM MES/Tris buffer at pH=7.0. Iron (II) binding was determined by UV-Vis spectroscopy of small molecules (30 μM) and FeCl2 (10 μM) in a 25 mM MES/Tris buffer at pH=7.0 containing 62.5 mM sodium ascorbate.

The test system of assay [3] is fet3Δftr1Δ yeast. In words: Fe3+ uptake assay in yeast. The class given is cell-based, Saccharomyces cerevisiae. On the procedure:
Iron (III) uptake into wild type and fet3Δftr1Δ yeast was adapted from Kosman and coworkers (56). Overnight yeast cultures were repeatedly centrifuged and rinsed with water. The cell pellet was resuspended in MilliQ water, and diluted in SD media without FeCl3. The cells were incubated at 30° C. for 3 hours, centrifuged and rinsed with water twice. The cells were then suspended to 3×10^7 cells/mL in SD media containing 50 mM sodium citrate and 2% glucose. Hinokitiol or C2deOHino (from 40X stocks in DMSO) was added to a final concentration of 100 μM before ^55FeCl3 ([…]) was added to the yeast suspensions. The suspension was continuously homogenized before aliquots were taken and diluted with 10 mL of room temperature water. Cells were then collected via vacuum filtration through a 0.45 μm nitrocellulose filter (Millipore HAWP), and rinsed with room temperature water (×5 of 100 mL). The filters were then transferred to a scintillation vial containing 3 mL of scintillation cocktail for measuring radioactivity using a liquid scintillation counter.

The test system of assay [4] is fet3Δftr1Δ yeast. The assay is described as follows: Metal selectivity in yeast (ICP-MS). The format is cell-based, Saccharomyces cerevisiae. Particulars: 10 μM hinokitiol, 100 μM FeCl3. On the procedure:
Hinokitiol-mediated changes in intracellular metal levels were determined using growth rescue conditions from FIG. 13H and an adaptation of the Fe uptake study in FIG. 1G. Specifically, wild type and fet3Δftr1Δ yeast were grown in YPD media overnight, rinsed, and incubated in SD media without FeCl3 at 30° C. for 3 hours. Yeast were then resuspended at an OD600=0.50 in SD media (50 mM MES/Tris, pH=7.0) containing 100 μM FeCl3 and either DMSO vehicle or 10 μM hinokitiol. After 2.5 hours of incubation, cells were centrifuged at 5° C., rinsed twice with cold 10 mM EDTA in 50 mM Tris/HCl buffer (pH=6.5), and once with cold metal-free water. Cells were then lyophilized for 48 hours. The lyophilized cells were digested with a 5:1 mixture of HNO3:HCl and then subjected to an automated sequential microwave digestion in a CEM Discover SP-D microwave digester. The resulting clear solution was diluted in metal-free water, and elemental analysis was performed by ICP-MS.

The subject of assay [5] is FPN1-deficient Flatiron (ffe/+) mice. In words: 59Fe gut absorption in Flatiron mice. The class given is in vivo. Particulars: 1.5 mg/kg, oral gavage, after one and two hours. On the procedure:
Temporal live cell imaging of labile iron levels in shDMT1 Caco-2 monolayers was performed after staining of Caco-2 monolayers with calcein green-AM (5 μM) in the apical and basolateral liquid for 30 minutes in pH=7.4 DMEM. […] Final volume administered was 1.5 mL/kg for each mouse, correcting for individual body weight. […] […] Radioactivity was quantified by gamma counting and calculated as the percentage of gavaged dose (±SEM). Experiments were performed with 4 genotyped-matched mice/day; preliminary analysis determined there were no gender effects on uptake of ^59Fe after intragastric gavage; mixed genders were used in the experiments shown.

Assay [6] can be described thus: Hinokitiol binding selectivity by ICP-MS. The settings on record: for Extracted Metal 1:1 Hino:Metals: 1 mM Hino; for Extracted Metal 1:1 Hino:Metals / Extracted Metal 10:1 Hino:Metals: 1 mM of each metal; for Extracted Metal 10:1 Hino:Metals: 60 mM Hino. On the procedure:
The binding selectivity for hinokitiol with multiple divalent metals was determined similar to previously described (32). […] The colored solution was allowed to incubate for 4 hours at room temperature. The solution was diluted in buffer, and extracted (×3) using 1:1 Hexanes:Ethyl Acetate. […] Control experiments were performed similar to those described above but in the absence of hinokitiol. No metal was detected in the organic layer by ICP-MS. Control experiments were also performed similar to those described above but using 60 mM hinokitiol. Metal content after extraction was compared to the initial metal content in the aqueous solution before extraction, and it was determined that the metal:hinokitiol complexes are extracted into the organic layer.

Each structure is given as a SMILES string. “Also recorded” adds a separate entry of the source.

Regarding `CC(C)c1cccc(=O)cc1` [C2deOHino, C2-deoxy hinokitiol], in assay [1], the hemoglobinization entry is reported as “no effect”. The iron binding entry in assay [2] is listed as “does not bind iron; also recorded: cannot bind or transport iron”. Further, the “55Fe uptake into fet3Δftr1Δ yeast” value with fet3Δftr1Δ yeast [3] is on record as “no uptake up to 100 μM”.

For the compound `CC(C)c1cccc(=O)c(O)c1` [hinokitiol], the “intracellular iron levels relative to vehicle-treated controls” value in the assay with fet3Δftr1Δ yeast [4] is given as “increased”. The “intracellular levels of manganese, cobalt, nickel, zinc, and copper” value in the assay with fet3Δftr1Δ yeast [4] is on record as “unchanged”. In assay [1], the hemoglobinization entry is listed as “restored hemoglobinization”. In addition, the iron binding entry in assay [2] is listed as “binds iron (III)”. In addition, the “55Fe uptake into fet3Δftr1Δ yeast” value in the assay on fet3Δftr1Δ yeast [3] is on record as “dose-dependent increase in ^55Fe uptake from 5 to 100 μM”. The 59Fe absorption result in assay [5] was “increased ^59Fe absorption”. For the same compound, the “Cu^II competitively bound relative to Fe^II” value in assay [6] (1:1 Hino:Metals) is on record as 10 fold. The “Extracted Metal 1:1 Hino:Metals” value came to 0.001 ± 0.000 µmol in assay [6] (Co^II); 45.15 ± 6.46 µmol in assay [6] (Cu^II); 4.80 ± 0.61 µmol in assay [6] (Fe^II); 0.0003 ± 0.0001 µmol in assay [6] (Mn^II); 0.0015 ± 0.0006 µmol in assay [6] (Zn^II). Besides, the “Extracted Metal 10:1 Hino:Metals” value amounted to 41 ± 0.3 µmol in assay [6] (Co^II); 46 ± 0.2 µmol in assay [6] (Cu^II); 46 ± 0.4 µmol in assay [6] (Fe^II); 37 ± 0.8 µmol in assay [6] (Mn^II); 35 ± 0.3 µmol in assay [6] (Ni^II); 38 ± 0.2 µmol in assay [6] (Zn^II).

The record behind these values is patent US12084411B2, “Hinokitiol analogues, methods of preparing and pharmaceutical compositions thereof” (The Board of Trustees of the University of Illinois, priority 2018, dated 2024).
